Test results published in patent US12491156B2, “Carrier particles for dry powder formulations for inhalation” (Chiesi Farmaceutici S.p.A., priority 2019, dated 2025).

Test: Aerosol performances by Next Generation Impactor (NGI)
Format: physicochemical
Method: The evaluation of the aerosol performances was carried out using the Next Generation Impactor (NGI) according to the conditions reported in the European Pharmacopeia 8.5th Ed 2015, par 2.9.18, pages 309-320. After aerosolization of 3 doses from the inhaler device, the NGI apparatus was disassembled and the amounts of drug deposited in the stages were recovered by washing with a 50:50 v/v water:acetonitrile mixture and then quantified by High-Performance Liquid Chromatography (HPLC). The following parameters, were calculated: i) the delivered dose which is the amount of drug delivered from the device recovered in the all parts of impactor; ii) the fine particle mass (FPM) which is the amount of delivered dose having a particle size equal to or lower than 5.0 micron; iii) the fine particle fraction (FPF) which is the ratio between the fine particle mass and the delivered dose; iv) the MMAD. The evaluation of the aerosol performances was performed as reported in Example 1. […]

[1] = Example 4 formulation, Multidose DPI
[2] = Example 4 formulation, Single Dose DPI (RS01)
[3] = Example 5 formulation, 1 mg single dose, single dose DPI RS01
[4] = Example 5 formulation, 4 mg single dose, single dose DPI RS01

Row | Delivered Dose (Example 1 formulation (3000 μg BDP per 10 mg shot), multidose DPI of WO 2016/000983, NGI, 3 doses) [mg] | MMAD (Example 1 formulation, multidose DPI) [μm] | Fine Particle Mass (Example 1 formulation, multidose DPI, particle size equal to or lower than 5.0 micron) [mg] | Fine Particle Fraction (Example 1 formulation, multidose DPI, ratio fine particle mass/delivered dose) [%] | Fine Particle Fraction [1] [%] | Fine Particle Mass [1] [mg] | MMAD [1] [μm] | Delivered Dose (Example 4 formulation, Multidose DPI (WO 2016/000983)) [mg] | Fine Particle Fraction [2] [%] | Fine Particle Mass [2] [mg] | MMAD [2] [μm] | Delivered Dose (Example 4 formulation, Single Dose DPI (RS01 of Plastiape)) [mg] | Delivered Dose [3] [mg] | Fine Particle Fraction [3] [%] | Fine Particle Mass [3] [mg] | MMAD [3] [μm] | Delivered Dose [4] [mg] | Fine Particle Fraction [4] [%] | Fine Particle Mass [4] [mg] | MMAD [4] [μm] | Compound
1 | 2.16 | 2.26 | 0.87 | 38.5 | – | – | – | – | – | – | – | – | – | – | – | – | – | – | – | – | CCC(=O)OCC(=O)[C@@]1(OC(=O)CC)[C@@H](C)C[C@H]2[C@@H]3CCC4=CC(=O)C=C[C@]4(C)[C@@]3(Cl)[C@@H](O)C[C@@]21C [BDP, beclometasone dipropionate, reference compound]
2 | – | – | – | – | 41.7 | 0.8 | 2.09 | 1.92 | 77.1 | 1.18 | 1.88 | 1.53 | 0.81 | 71.6 | 0.58 | 2.15 | 2.88 | 73.9 | 2.13 | 1.85 | COC(=O)C1=C(C)N(c2cccc(C(F)(F)F)c2)c2n[nH]c(=O)n2[C@@H]1c1ccc(C#N)cc1CC[N+](C)(C)C [CHF 6333]
